Patent US6143749A, “Heterocyclic substituted cyclopentane compounds” (Abbott Laboratories, priority 1996, dated 2000)

Key:
adenosine kinase [1] = target: adenosine kinase (Homo sapiens, UniProt P55263); assay: inhibition of adenosine kinase activity in vitro; assay type: biochemical
Description: The adenosine kinase to be inhibited can be located in vitro, in situ or in vivo. Where the adenosine kinase is located in vitro, adenosine kinase is contacted with the inhibitor compound, typically by adding the compound to an aqueous solution containing the enzyme, radiolabeled substrate adenosine, magnesium chloride and ATP. The enzyme can exist in intact cells or in isolated subcellular fractions containing the enzyme. The enzyme is then maintained in the presence of the inhibitor for a period of time and under suitable physiological conditions. Means for determining maintainence times are well known in the art and depend inter alia on the concentrations of enzyme and the physiological conditions. Suitable physiological conditions are those necessary to maintain adenosine kinase viability and include temperature, acidity, tonicity and the like. Inhibition of adenosine kinase can be performed, by example, according to standard procedures well known in the art (Yamada, et al, Comp. Biochem. Physiol. 1982, 71B: 367-372).
In vitro adenosine kinase activity can be measured using any of the standard procedures well known in the art. By way of example, cells containing adenosine kinase, such as IMR-32 human -neuroblastoma cells, are cultured in the presence and absence of an inhibitor. Inhibition is measured as the ability to inhibit phosphorylation of endogenous or externally applied ^14 C-adenosine by these cells. The cells can be intact or broken. The specificity of adenosine kinase inhibitory activity is determined by studying the effects of inhibitors on adenosine A1 and A2a receptor binding, adenosine deaminase activity and adenosine transport.
Numerous inhibitor compounds of the present invention were tested in vitro and found to inhibit adenosine kinase activity. The results of some representative studies are shown below in Tables 1 and 2.

adenosine kinase [2] = conditions: literature, in words; cited from earlier work

adenosine kinase (Homo sapiens, UniProt P55263), sequence (P55263 whole entry, species assumed): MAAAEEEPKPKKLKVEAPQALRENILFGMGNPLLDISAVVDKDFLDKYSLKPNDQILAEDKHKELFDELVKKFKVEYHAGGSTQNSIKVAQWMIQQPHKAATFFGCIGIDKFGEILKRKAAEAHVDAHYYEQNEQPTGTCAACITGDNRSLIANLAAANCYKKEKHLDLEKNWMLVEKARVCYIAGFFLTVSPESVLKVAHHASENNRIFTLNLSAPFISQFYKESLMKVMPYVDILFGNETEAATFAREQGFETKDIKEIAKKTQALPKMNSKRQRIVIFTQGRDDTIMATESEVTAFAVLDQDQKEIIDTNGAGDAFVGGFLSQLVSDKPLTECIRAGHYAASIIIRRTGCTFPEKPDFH

| SMILES | IC50 (adenosine kinase [1]; Table 1, adenosine kinase) | IC50 (adenosine kinase [1]; Table 2, adenosine kinase) | also measured |
| --- | --- | --- | --- |
| Nc1ncnc2c1c(I)cn2[C@@H]1C[C@H](Nc2ccc(Cl)nn2)[C@@H](O)[C@H]1O | 20 nM | – | – |
| Nc1ncnc2c1c(I)cn2[C@@H]1C[C@H](Nc2ncccn2)[C@@H](O)[C@H]1O | 38 nM | – | – |
| O[C@@H]1[C@H](O)[C@@H](Nc2ccc(Br)cc2)C[C@H]1n1cc(I)c2c(Cl)ncnc21 | 15 nM | – | – |
| CC(C)(C)OC(=O)[C@H](CC(N)=O)N[C@H]1C[C@@H](n2cc(I)c3c(Cl)ncnc32)[C@H](O)[C@@H]1O | 200 nM | – | – |
| NC(=O)C[C@H](N[C@H]1C[C@@H](n2cc(I)c3c(Cl)ncnc32)[C@H](O)[C@@H]1O)C(=O)O | 48 nM | – | – |
| CC(C)(C)OC(=O)[C@H](CC(N)=O)N([C@H]1C[C@@H](n2cc(I)c3c(Cl)ncnc32)[C@H](O)[C@@H]1O)S(=O)(=O)c1ccc([N+](=O)[O-])cc1[N+](=O)[O-] | 350 nM | – | – |
| N[C@@H]1C=C[C@H](n2cc(I)c3c(Cl)ncnc32)C1 | 3000 nM | – | – |
| N[C@@H]1CC[C@H](n2cc(I)c3c(Cl)ncnc32)C1 | 330 nM | – | – |
| O=C(Cc1ccccn1)N[C@H]1C[C@@H](n2cc(I)c3c(Cl)ncnc32)[C@H](O)[C@@H]1O | – | 175 nM | – |
| O=C(Cc1cccnc1)N[C@H]1C[C@@H](n2cc(I)c3c(Cl)ncnc32)[C@H](O)[C@@H]1O | – | 250 nM | – |
| NC[C@H]1O[C@@H](n2cnc3c(N)ncnc32)[C@H](O)[C@@H]1O [5'-amino,5'-deoxyadenosine] | – | – | reported to inhibit adenosine kinase; the most potent (adenosine kinase [2]): most potent |
| C[C@H]1O[C@@H](n2cc(I)c3c(N)ncnc32)[C@H](O)[C@@H]1O [5'-deoxy-5-iodotubercidin] | – | – | reported to inhibit adenosine kinase; the most potent (adenosine kinase [2]): most potent |
| Nc1ncnc2c1c(I)cn2[C@@H]1O[C@H](CO)[C@@H](O)[C@H]1O [5-iodotubercidin] | – | – | reported to inhibit adenosine kinase; the most potent (adenosine kinase [2]): most potent |
| O=C(O)CN[C@H]1C[C@@H](n2cc(I)c3c(Cl)ncnc32)[C@H](O)[C@@H]1O [drawing 14: R4=HO2 CCH2 NH; R5=Cl; R6=I, N7-((1'R,2'S,3'R,4'S)-2',3'-dihydroxy-4'-(carboxymethylene)amino-cyclopentyl)-4-chloro-5-iodo-pyrrolopyrimidine] | 150 nM | – | – |
| N[C@H]1C[C@@H](n2cc(C#Cc3ccccc3)c3c(C#Cc4ccccc4)ncnc32)[C@H](O)[C@@H]1O [drawing 14: R4=NH2; R5=C≡C--Ph; R6=C≡C--Ph] | 4 nM | – | – |
| N[C@H]1C[C@@H](n2cc(-c3ccccc3)c3c(Nc4ccccc4)ncnc32)[C@H](O)[C@@H]1O [drawing 14: R4=NH2; R5=NHPh; R6=Ph] | 35 nM | – | – |
| CC(C)(C)OC(=O)CN[C@H]1C[C@@H](n2cc(I)c3c(Cl)ncnc32)[C@H](O)[C@@H]1O [drawing 14: R4=t-buOCOCH2 NH; R5=Cl; R6=I, N7-((1'R,2'S,3'R,4'S)-2',3'-dihydroxy-4'-(t-butoxycarbonyl-methylene)amino-cyclopentyl)-4-chloro-5-iodo-pyrrolopyrimidine] | 28 nM | – | – |
| CC(=O)O[C@@H]1[C@H](OC(C)=O)[C@@H](OC(C)=O)C[C@H]1n1cc(Cl)c2c(Cl)ncnc21 [drawing 24: R5=Cl; R6=Cl, N7-((1'R,2'S,3'R,4'S)-2',3',4'-triacetoxycyclopentyl)-4,5-dichloro-pyrrolopyrimidine] | – | > 10000 nM | – |
| CC(=O)O[C@@H]1[C@H](OC(C)=O)[C@@H](OC(C)=O)C[C@H]1n1cc(I)c2c(Cl)ncnc21 [drawing 24: R5=Cl; R6=I, N7-((1'R,2'S,3'R,4'S)-2',3',4'-triacetoxycyclopentyl)-4-chloro-5-iodo-pyrrolopyrimidine] | – | > 100000 nM | – |
| CN(C)CC(=O)N[C@H]1C[C@@H](n2cc(I)c3c(Cl)ncnc32)[C@H](O)[C@@H]1O [drawing 27: R=(CH3)2 NCH2 CO, N7-((1'R,2'S,3'R,4'S)-2',3'-dihydroxy-4'-(dimethylaminoacetyl)amino-cyclopentyl)-4-chloro-5-iodo-pyrrolopyrimidine] | – | 480 nM | – |
| COC(=O)N[C@H]1C[C@@H](n2cc(I)c3c(Cl)ncnc32)[C@H](O)[C@@H]1O [drawing 27: R=CH3 OCO, N7-((1'R,2'S,3'R,4'S)-2',3'-dihydroxy-4'-(methoxycarbonyl)amino-cyclopentyl)-4-chloro-5-iodo-pyrrolo-pyrimidine] | – | 300 nM | – |
| NCC(=O)N[C@H]1C[C@@H](n2cc(I)c3c(Cl)ncnc32)[C@H](O)[C@@H]1O [drawing 27: R=NH2 CH2 CO, N7-((1'R,2'S,3'R,4'S)-2',3'-dihydroxy-4'-(amino-acetyl)amino-cyclopentyl)-4-chloro-5-iodo-pyrrolopyrimidine] | – | 32 nM | – |
